Data taken from ChEMBL document CHEMBL1158830, “Digitoxin inhibits the growth of cancer cell lines at concentrations commonly found in cardiac patients” (J Nat Prod, 2005).
pIC50: −log10 of the molar value. Activity calls are given as the source filed them. No cut-off for these calls is given here.

Tests used:
[1] = test system: MCF7; assay: Cytotoxicity against human MCF7 cells after 48 hrs by SRB assay; assay type: functional, cell-based; details: MCF7, 48 h
[2] = test system: TK-10; assay: Cytotoxicity against human TK10 cells after 48 hrs by SRB assay; assay type: functional, cell-based; details: TK-10, 48 h
[3] = test system: UACC-62; assay: Cytotoxicity against human UACC62 cells after 48 hrs by SRB assay; assay type: functional, cell-based; details: UACC-62, 48 h
[4] = test system: TK-10; assay: Induction of apoptosis in human TK10 cells assessed as viable cells at 3 nM for 48 hrs measured after 3 days of drug removal by fluorescence microscopy assay; assay type: functional; details: read-out: Activity
[5] = test system: TK-10; assay: Induction of apoptosis in human TK10 cells assessed as apoptotic cells at 3 nM for 48 hrs measured after 3 days of drug removal by fluorescence microscopy assay; assay type: functional
[6] = target: DNA topoisomerase 2-alpha (Homo sapiens) (UniProt P11388); assay: Inhibition of topoisomerase 2alpha-mediated cleavage of double-stranded pRYG DNA assessed as linear DNA at 100 nM by agarose gel electrophoresis
[7] = test system: TK-10; assay: Induction of apoptosis in human TK10 cells assessed as necrotic cells at 3 nM for 48 hrs measured after 3 days of drug removal by fluorescence microscopy assay; assay type: functional
[8] = target: DNA topoisomerase 2-alpha (Homo sapiens) (UniProt P11388); assay: Inhibition of topoisomerase 2alpha-mediated cleavage of double-stranded pRYG DNA assessed as linear DNA at 100 uM by agarose gel electrophoresis
[9] = test system: K562; assay: Cytotoxicity against human K562 cells by XTT assay; assay type: functional, cell-based
[10] = target: DNA topoisomerase 2-beta (Homo sapiens) (UniProt Q02880); assay: Inhibition of topoisomerase 2beta in human K562 cells assessed as cleavage of supercoiled pRYG DNA at 300 nM after 0.5 hrs by TARDIS assay relative to control; assay type: cell-based
[11] = target: DNA topoisomerase 2-alpha (Homo sapiens) (UniProt P11388); assay: Inhibition of topoisomerase 2alpha-mediated cleavage of double-stranded pRYG DNA assessed as linear DNA at 30 nM by agarose gel electrophoresis
[12] = target: DNA topoisomerase 2-beta (Homo sapiens) (UniProt Q02880); assay: Inhibition of topoisomerase 2beta in human K562 cells assessed as cleavage of supercoiled pRYG DNA at 300 nM by TARDIS assay; assay type: cell-based; details: TDE = time-dependent effect
[13] = target: DNA topoisomerase 2-beta (Homo sapiens) (UniProt Q02880); assay: Inhibition of topoisomerase 2beta in human K562 cells assessed as cleavage of supercoiled pRYG DNA at 300 nM after 24 hrs by TARDIS assay; assay type: cell-based
[14] = organism: Homo sapiens; assay: Plasma concentration in human; assay type: ADME, organism-based; details: in vivo

Sequence of DNA topoisomerase 2-beta (Homo sapiens) (Q02880 whole entry): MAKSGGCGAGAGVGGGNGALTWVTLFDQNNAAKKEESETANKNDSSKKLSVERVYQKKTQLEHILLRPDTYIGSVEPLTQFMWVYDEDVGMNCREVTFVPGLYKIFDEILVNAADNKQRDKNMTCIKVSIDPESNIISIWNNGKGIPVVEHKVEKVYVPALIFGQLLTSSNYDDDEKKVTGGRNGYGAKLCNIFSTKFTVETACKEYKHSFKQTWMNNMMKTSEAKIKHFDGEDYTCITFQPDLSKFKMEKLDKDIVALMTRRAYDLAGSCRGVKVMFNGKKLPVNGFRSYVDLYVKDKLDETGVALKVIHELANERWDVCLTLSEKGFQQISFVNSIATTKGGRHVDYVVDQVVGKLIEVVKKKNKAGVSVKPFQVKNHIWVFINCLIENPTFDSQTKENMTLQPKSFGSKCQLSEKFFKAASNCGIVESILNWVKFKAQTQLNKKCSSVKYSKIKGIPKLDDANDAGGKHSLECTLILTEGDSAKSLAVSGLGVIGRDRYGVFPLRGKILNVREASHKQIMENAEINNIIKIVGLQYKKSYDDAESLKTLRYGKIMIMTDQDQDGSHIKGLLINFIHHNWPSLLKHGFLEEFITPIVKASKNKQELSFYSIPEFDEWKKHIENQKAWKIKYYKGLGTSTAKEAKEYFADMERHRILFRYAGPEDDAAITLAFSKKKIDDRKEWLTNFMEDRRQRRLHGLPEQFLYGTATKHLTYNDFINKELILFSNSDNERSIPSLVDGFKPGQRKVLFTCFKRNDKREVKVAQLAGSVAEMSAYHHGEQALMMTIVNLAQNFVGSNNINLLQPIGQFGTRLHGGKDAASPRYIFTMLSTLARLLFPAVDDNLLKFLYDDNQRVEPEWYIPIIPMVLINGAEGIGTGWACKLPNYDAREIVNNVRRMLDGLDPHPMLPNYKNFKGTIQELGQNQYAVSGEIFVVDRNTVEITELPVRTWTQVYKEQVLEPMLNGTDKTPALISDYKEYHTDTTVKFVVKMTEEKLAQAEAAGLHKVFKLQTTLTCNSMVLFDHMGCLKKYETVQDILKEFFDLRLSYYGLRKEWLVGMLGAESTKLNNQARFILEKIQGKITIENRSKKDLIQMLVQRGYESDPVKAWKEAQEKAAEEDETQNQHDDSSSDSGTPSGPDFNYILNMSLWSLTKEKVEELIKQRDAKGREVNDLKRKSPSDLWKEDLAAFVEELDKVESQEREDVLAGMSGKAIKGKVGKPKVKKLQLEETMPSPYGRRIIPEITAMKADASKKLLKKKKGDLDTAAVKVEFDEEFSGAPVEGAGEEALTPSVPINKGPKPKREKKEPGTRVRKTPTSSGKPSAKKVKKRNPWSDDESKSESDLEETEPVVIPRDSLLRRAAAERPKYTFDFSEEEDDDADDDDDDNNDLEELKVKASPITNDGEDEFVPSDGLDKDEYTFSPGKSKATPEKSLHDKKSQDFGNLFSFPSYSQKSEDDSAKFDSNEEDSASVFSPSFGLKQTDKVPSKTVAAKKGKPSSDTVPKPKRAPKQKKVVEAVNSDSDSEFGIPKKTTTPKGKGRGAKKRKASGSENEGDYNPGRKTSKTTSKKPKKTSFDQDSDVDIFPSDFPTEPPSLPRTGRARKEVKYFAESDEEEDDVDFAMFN
Sequence of DNA topoisomerase 2-alpha (Homo sapiens) (P11388 whole entry): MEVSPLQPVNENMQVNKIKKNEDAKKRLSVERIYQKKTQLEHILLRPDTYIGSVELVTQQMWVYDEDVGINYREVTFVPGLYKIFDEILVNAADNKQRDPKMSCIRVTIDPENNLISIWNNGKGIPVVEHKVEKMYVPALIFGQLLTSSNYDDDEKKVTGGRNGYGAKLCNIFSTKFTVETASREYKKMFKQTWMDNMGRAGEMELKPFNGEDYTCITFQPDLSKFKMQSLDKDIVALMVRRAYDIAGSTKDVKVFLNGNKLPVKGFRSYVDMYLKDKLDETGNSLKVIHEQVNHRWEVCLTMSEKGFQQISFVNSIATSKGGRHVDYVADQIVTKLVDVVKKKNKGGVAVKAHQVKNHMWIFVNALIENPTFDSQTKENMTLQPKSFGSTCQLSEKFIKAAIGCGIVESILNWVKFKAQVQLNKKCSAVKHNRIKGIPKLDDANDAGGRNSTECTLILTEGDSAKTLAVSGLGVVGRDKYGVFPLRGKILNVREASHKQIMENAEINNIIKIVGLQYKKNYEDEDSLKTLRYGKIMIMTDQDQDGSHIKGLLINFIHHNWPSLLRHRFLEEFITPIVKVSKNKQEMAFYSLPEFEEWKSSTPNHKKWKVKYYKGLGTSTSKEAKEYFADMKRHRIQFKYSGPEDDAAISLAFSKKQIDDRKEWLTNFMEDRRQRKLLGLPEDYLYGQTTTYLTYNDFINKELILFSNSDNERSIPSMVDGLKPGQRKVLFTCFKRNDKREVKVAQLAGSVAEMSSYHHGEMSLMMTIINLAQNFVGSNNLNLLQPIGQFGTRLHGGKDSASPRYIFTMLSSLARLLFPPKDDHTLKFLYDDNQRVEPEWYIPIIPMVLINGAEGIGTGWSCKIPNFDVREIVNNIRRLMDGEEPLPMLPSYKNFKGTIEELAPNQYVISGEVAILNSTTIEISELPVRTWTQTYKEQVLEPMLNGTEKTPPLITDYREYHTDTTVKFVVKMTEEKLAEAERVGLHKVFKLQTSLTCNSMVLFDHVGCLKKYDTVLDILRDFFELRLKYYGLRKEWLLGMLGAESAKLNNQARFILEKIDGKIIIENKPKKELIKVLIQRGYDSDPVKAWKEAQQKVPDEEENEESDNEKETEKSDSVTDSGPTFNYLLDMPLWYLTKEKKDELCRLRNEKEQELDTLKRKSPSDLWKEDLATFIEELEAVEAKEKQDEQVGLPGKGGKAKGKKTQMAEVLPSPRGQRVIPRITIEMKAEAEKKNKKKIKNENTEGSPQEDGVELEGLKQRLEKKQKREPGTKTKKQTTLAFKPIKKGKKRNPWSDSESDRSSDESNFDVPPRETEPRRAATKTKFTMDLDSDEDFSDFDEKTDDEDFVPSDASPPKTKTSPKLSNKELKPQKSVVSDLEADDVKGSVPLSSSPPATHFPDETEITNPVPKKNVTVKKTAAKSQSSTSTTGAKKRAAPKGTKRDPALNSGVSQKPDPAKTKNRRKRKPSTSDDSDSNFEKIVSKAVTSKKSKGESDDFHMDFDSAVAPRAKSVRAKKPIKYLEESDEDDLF

| SMILES | pIC50 [1] | pIC50 [2] | pIC50 [3] | other results |
| --- | --- | --- | --- | --- |
| C[C@]12CC[C@H](O)C[C@H]1CC[C@@H]1[C@@H]2CC[C@]2(C)[C@@H](C3=CC(=O)OC3)CC[C@]12O [DIGITOXIGENIN] | 6.71 | 7.12 | 6.46 |  |
| C[C@H]1O[C@@H](O[C@H]2[C@@H](O)C[C@H](O[C@H]3[C@@H](O)C[C@H](O[C@H]4CC[C@@]5(C)[C@H](CC[C@@H]6[C@@H]5CC[C@]5(C)[C@@H](C7=CC(=O)OC7)CC[C@]65O)C4)O[C@@H]3C)O[C@@H]2C)C[C@H](O)[C@@H]1O [DIGITOXIN] | 7.99 | 8.49 | 7.47 | viability at 0.003 µM [4]: 52.1%; Activity [5]: 41.3%; Activity [6]: inactive; Activity [7]: 6.6%; Activity [8]: Active; pIC50 [9]: 8.19; Activity [10]: Active; Activity [11]: inactive; Activity [12]: tde; Activity [13]: Active; concentration [14]: 19.6 nM |
| C[C@]12CC[C@H](O)C[C@H]1CC[C@@H]1[C@@H]2C[C@@H](O)[C@]2(C)[C@@H](C3=CC(=O)OC3)CC[C@]12O [DIGOXIGENIN] | 6.29 | 6.50 | 6.38 |  |
| C[C@H]1O[C@@H](O[C@H]2[C@@H](O)C[C@H](O[C@H]3[C@@H](O)C[C@H](O[C@H]4CC[C@@]5(C)[C@H](CC[C@@H]6[C@@H]5C[C@@H](O)[C@]5(C)[C@@H](C7=CC(=O)OC7)CC[C@]65O)C4)O[C@@H]3C)O[C@@H]2C)C[C@H](O)[C@@H]1O [DIGOXIN] | 7.62 | 7.84 | 7.53 | pIC50 [9]: 7.55; concentration [14]: 0.6 nM |
| COc1cc([C@@H]2c3cc4c(cc3[C@@H](O[C@@H]3O[C@@H]5CO[C@@H](C)O[C@H]5[C@H](O)[C@H]3O)[C@H]3COC(=O)[C@H]23)OCO4)cc(OC)c1O [ETOPOSIDE] | 6.06 | 5.00 | 5.95 |  |
| C[C@]12CC[C@H](O)C[C@H]1CC[C@@H]1[C@@H]2CC[C@]2(C)[C@@H](C3=CC(=O)OC3)[C@@H](O)C[C@]12O [GITOXIGENIN] | 5.74 | 6.38 | 5.55 |  |
| C[C@H]1O[C@@H](O[C@H]2[C@@H](O)C[C@H](O[C@H]3[C@@H](O)C[C@H](O[C@H]4CC[C@@]5(C)[C@H](CC[C@@H]6[C@@H]5CC[C@]5(C)[C@@H](C7=CC(=O)OC7)[C@@H](O)C[C@]65O)C4)O[C@@H]3C)O[C@@H]2C)C[C@H](O)[C@@H]1O [GITOXIN] | 6.60 | 6.88 | 6.43 |  |
